According to patent US5466689A, “Morpholine derivatives and their use” (Takeda Chemical Industries, Ltd., priority 1993, dated 1995):

Tests used:
[1] = acute toxicity (LD50), oral, rats; conditions: rat, in vivo, orally administered to rats
Text: Therefore, the compounds of this invention and their salts can be used for prophylaxis or therapy of diseases including pain due to bone diseases (arthritis, rheumatic fever, osteoporosis), pain induced by cancer or the like, lumbago, postoperative pain, neuralgia, pain induced by inflammatory diseases, pain caused by tooth extraction, tooth-ache and pain due to burn trauma, as well as neurosis (e.g. anxiety neurosis, depression, mental disorder), somnipathy or the like. Since the compounds of this invention act on a neurotransmitting system such as dopamine or norepinephrine, they can be used also as prophylactic and therapeutic drugs for circulatory diseases (e.g. hypertension).

Writhing = test: Acetic acid-writhing method; assay type: in vivo, Slc:ICR mice; conditions: mice, 0.6% acetic acid i.p. 30 min later, writhing during 20 minutes
Procedure: Acetic acid-writhing method
Male Slc:ICR mice of four-week old (10 animals per group) were employed. Test compounds were orally administered. Thirty minutes later, purified water containing 0.6% acetic acid was injected intraperitoneally (0.1 ml/10 g body weight). Writhing shown by the test animals during 20 minutes was observed on individual animals.
On each test animal, the inhibition rate against the average response times in the control group was calculated. The test compound was administered as a 5% suspension of gum arabica.

Substance-P = test: Action of Substance-P for inhibiting biting response by its administration at subarachnoid space; assay type: in vivo, Jcl:ICR mice; conditions: mice; dosage 10 μg/mouse; SP 10 ng/5 μl/mouse at subarachnoid space; bitings counted for one minute
Procedure: Action of Substance-P for inhibiting biting response by its administration at subarachnoid space
Five-week old male Jcl:ICR mice (10 animals per group) were employed. Dorsal cutaneous incisions were made under anesthesia at least one hour before the experiments. Substance-P (SP) was administered in an amount of 10 ng/5 μl/mouse at the subarachnoid space of the spinal cord. Then the test animals started to bite themselves at the abdomen alternately. The number of bitings was counted for one minute immediately after the SP administration. The values thus obtained were made indexes of pseudo pain reflexes caused by SP.
Test drugs were dissolved in a solution (Tween 80:ethanol:physiological saline=20:10:70) together with a given amount of SP. The solutions thus prepared were administered to test animals. In the case of oral administration, 5% suspension of gum arabica was employed, which was administered at 30 minutes before the SP administration.
The inhibition rate (%) of each sample was calculated by the following formula. Inhibition rate (%)=(number of counts in the control group-numberof counts in each sample)/(number of counts in the control group)×100.
And, 50% inhibition dose (ID50) was calculated from the primary linear regression line of dose-dependent curve.

CCN1CCO[C@]2(C)c3c(OC)ccc4[nH]cc(c34)C[C@@H]12 (relative stereo) [Example 2, Trans-4,6,6a,8,9,10a-hexahydro-7-ethyl-1-methoxy-10a-methyl-7H-indole[3,4-gh][1.4]benzoxazine]
LD50 [1]: ≥ 100 mg/kg | Inhibition rate (%), analgesic action (writhing) (Writhing; 25 mg/kg,p.o.): 99% | Inhibition rate (%), antagonistic action to Substance-P (biting response) (Substance-P): 100%

C=C[C@]12OCCN(CC)[C@@H]1Cc1c[nH]c3cccc2c13 (relative stereo) [Example 1, Trans-4,6,6a,8,9,10a-hexahydro-7-ethyl-10a-vinyl-7H-indolo[3,4-gh][1.4]benzoxazine]
Inhibition rate (%), antagonistic action to Substance-P (biting response) (Substance-P): 80%

CCN1CCO[C@]2(C)c3cccc4[nH]cc(c34)C[C@@H]12 (relative stereo) [Example 8, Trans-4,6,6a,8,9,10a-hexahydro-7-ethyl-10a-methyl-7H-indolo[3,4-gh][1,4]benzoxazine]
Inhibition rate (%), analgesic action (writhing) (Writhing; 12.5 mg/kg,p.o.): 61% | Inhibition rate (%), antagonistic action to Substance-P (biting response) (Substance-P): 65%
